# Measured values taken from patent US11261194B2, “Production method of diol” (MITSUBISHI GAS CHEMICAL COMPANY, INC., priority 2017, dated 2022).
# Assay: solubility in water at 25° C.
# Type: physicochemical
structure (smiles),measurement,value
"O=C1CCC(=O)CC1 [1,4-cyclohexanedione]",solubility,750 mg/mL
CCC1(CO)COC2(CCC3(CC2)OCC(CC)(CO)CO3)OC1 (stereo not shown) [compound A],solubility in water at 25° C.,≤ 0.5 mg/mL
CC1(CO)COC2(CCC3(CC2)OCC(C)(CO)CO3)OC1 (stereo not shown) [compound B],solubility in water at 25° C.,≤ 0.5 mg/mL
CC(CO)(CO)CO [trimethylolethane],solubility in water at 25° C.,≥ 100 mg/mL
